Laboratory results as given in US5597798A, “Taxol and epidermal growth factor used to enhance treatment of ovarian cancer” (The Regents of the University of California, priority 1994, dated 1997).
Where two headings read alike, the source gives them in different places.

Assays:
[1] = test system: 2008 human ovarian carcinoma cells; experiment: Colony forming assay, effect of EGF on sensitivity to cytotoxic agents; type: cell-based
cellular cAMP = experiment: Determination of cellular cAMP content; type: cell-based; details: for cAMP level, 10 min. mean: 10 min treatment; for cAMP level, 10 min. mean / cAMP level, 60 min. mean: means of 6 experiments; for cAMP level, 60 min. mean: 60 min treatment
2008/C13*5 cells = experiment: Colonogenic assay, effect of TPA on DDP sensitivity of DDP-resistant cells; type: cell-based, human; details: TPA and DDP concurrently for 1 h
Excerpt: The following cell lines were used in these studies: 2008 human ovarian carcinoma (Disaia, et al., Am. J. Obstet. Gynecol. 114:978 (1972)), COLO 316 human ovarian carcinoma (Woods et al., Cancer Res. 39:4449 (1979)), a DDP resistant variant 2008/C13*, derived from the parent 2008 cell line (Andrews, et al., Cancer Res. 45:6250 (1985)), A549 non-small cell lung cancer (Lieber et al., Int. J. Cancer 17:62 (1976)), NCI-H520 squamous cell lung cancer (Brower et al., Cancer Res. 46: 798 (1986)), NCI-H596 adenosquamous lung cancer (Banks-Schlegel et al., Cancer Res. 45: 1187 (1985)), UMC 31 small cell lung cancer cells (Graziano et al., Genes, Chromosomes and Cancer 3: 283 (1991)), GLC4 small cell lung cancer cells (Zijlstra et al., Cancer Res. 47: 1780 (1987)), UMCC10b head and neck cancer cells (Krause et al., Arch. Otolayngol. 107: 703 (1981)), 5637 bladder cancer cells (Fogh et al., J. Natl. Cancer Inst. 58: 209 (1977)), MIA PaCa-2 pancreatic cancer cells (Yunis et al., Int. […]
Colony forming assays were used to assess the effect of each drug on the sensitivity of various tumor cell lines to cytotoxic agents (Andrews, et al., Chem.-Biol. Interact 65:51-58 (1988)). […] Colonies of over 60 cells were counted macroscopically.
The 2008/C13*5 cell line is 8-10-fold resistant to DDP. […] Drug cytotoxicity was determined by colonogenic assay on plastic dishes. […]

[2] = Colony formation, TPA sensitization to DDP with cycloheximide (CHM); type: cell-based; details: 2 μM DDP with 10^-7 M TPA 1 h
2008 cells [3] = experiment: Colony forming (colonogenic) assay, effect of TPA, phorbol and staurosporine on DDP sensitivity
human KB carcinoma cells = details: TPA treatment; cited from earlier work
2008 cells [4] = experiment: Cellular accumulation of [195mPt]DDP; type: cell-based, human; details: concurrent 60 min
Experimental: Cell-associated ^195m Pt was determined by as a measure of DDP accumulation. For DDP accumulation studies, subconfluent monolayers were treated with 37° C. RPMI 1640 medium containing 20 μM [^195m Pt]-DDD. The dishes were immediately returned to the incubater. After 1 h incubation, the medium was aspirated, the cells were washed rapidly with 4° C. PBS 4 times. Two ml of 1N NaOH was added and the cells allowed to digest overnight. A forty μl aliquot was used for determination of protein content by the method of Bradford (Bradford, Anal. Biochem. 72:248-254 (1976)), and the remaining […] was counted in glass tubes on a Trak 1191 gamma counter (Tracer Analytic, EIK Grove Village, Ill.). Columns represent the mean values of 3 experiments performed with duplicate cultures. The bars represent the standard deviation.
Cultured 2008 cells were treated concurrently with [^195m Pt]DDP and TPA for 60 min. A vehicle control consisting of an appropriate dilution of acetone was run concurrently. […] Cells treated with medium alone contained 140±13 pmol/mg of protein, whereas those treated with the acetone control contained 141±7 pmol/mg of protein, and those treated with TPA contained 143±21 pmol/mg of protein.

human EGF receptor = experiment: Expression of human EGF receptor in transfected C127 cells (monoclonal antibody 528 staining); type: cell-based; details: Desferrioxamine 10 μM for 60 hs
[5] = test system: C127 mouse fibroblasts transfected with the human EGF receptor gene; experiment: Tetrazolium (MTT) growth rate assay, DDP sensitivity; type: cell-based
Experimental: Expression of the transferrin receptor gene is normally under the control of the transferrin […], and is regulated by iron (Owen and Kuhn, EMBO J. 6:1287 (1987)). Incubation with the iron chelator desferrioxamine induces expression of the transferrin receptor gene (Bridges and Cudkowicz, J. Biol. Chem. 259:12970 (1984)). […] Closed squares, transfected […] mouse fibroblasts pretreated with desferrioxamine; open squares, untreated cells. […] Louis, Mo.) was prepared at 1 mg/ml in DME media and on day 7, 50 μl are added to the microculture wells. After a 4 h incubation at 37° C., all the media was removed from each well, and 150 μl of 100% DMSO (dimethyl sulfoxide) was added to solubilize the MTT-formazan product. After thorough mixing, absorbance at 540 nm was measured with a Molecular Devices Vmax Kinetic microplate reader.

[6] = EGF and the cytotoxic agent concurrently for 1 h
[7] = Homo sapiens, Ovarian carcinoma cell, 1 h, read-out: IC50 in absence of EGF
[8] = mean ± SD of at least 3 experiments
[9] = read-out: IC50 in presence of EGF, EGF and the cytotoxic agent concurrently for 1 h

Question: Which “effect of EGF on sensitivity of 2008 cells to the agent (in words)” value (“effect of EGF” for short) [1, 6] does the source give for O=c1[nH]cc(F)c(=O)[nH]1 [5-fluorouracil] here?
Answer: Its value is “significant increase in sensitivity”.

Question: And the IC50 [1, 7]?
Answer: Its IC50 is 20 µM.

Question: What about the “Dose modifying factor (ratio of the IC50 values in control and EGF-treated cells)” value [1, 8] of the same molecule?
Answer: The value was 1.8 ± 0.3.

Question: What about the IC50 [1, 9] of the same molecule?
Answer: The IC50 was 11 µM.

Question: For C=C[C@@]1(C)CC(=O)[C@]2(O)[C@@]3(C)[C@@H](O)CCC(C)(C)[C@@H]3[C@H](O)[C@H](OC(C)=O)[C@@]2(C)O1 [Forskolin], which “increase in cAMP content” value (cellular cAMP) is on record?
Answer: Its value is 297 fold.

Question: What about the “cAMP level, 10 min. mean” value (cellular cAMP) of the same molecule?
Answer: Its value is 2135.0 pmol/mg protein.

Question: What about the “cAMP level, 60 min. mean” value (cellular cAMP) of the same molecule?
Answer: Its value is 6365.0 pmol/mg protein.

Question: With CCCCCCCCCCCCCC(=O)O[C@@H]1[C@@H](C)[C@@]2(O)[C@@H](C=C(CO)C[C@]3(O)C(=O)C(C)=C[C@@H]23)[C@H]2C(C)(C)[C@]12OC(C)=O [TPA] as the molecule, how does the “sensitization to DDP” value (2008/C13*5 cells) read?
Answer: Its value is 2.6 fold.

Question: What about the “survival, % of control (S.D.)” value ([2]; absence of CHM) of the same molecule?
Answer: Its value is 33±5%.

Question: And the “survival, % of controls (S.D.)” value ([2]; presence of CHM 5 μg/ml)?
Answer: Its value is 41±7%.

Question: What about the “interaction between TPA and DDP, median effect analysis” value (2008 cells [3]) of the same molecule?
Answer: The value was “truly synergistic”.

Question: And the “loss of TPA sensitization” value (2008 cells [3]; 0.1 μM TPA 1 h, 2 μM DDP 1 h)?
Answer: Its value is “largely disappeared by 7 h”.

Question: And the “survival, % of control” value (2008 cells [3]; 2 μM DDP plus 0.1 μM TPA)?
Answer: Its value is 38±16%.

Question: And the “survival normalized to 2 μM DDP alone = 100%” value (2008 cells [3]; 2 μM DDP plus TPA, no staurosporine)?
Answer: The value was 44%.

Question: What about the “DDP sensitization after TPA pretreatment” value (2008 cells [3]; 24-h exposure to 0.1 μM TPA followed by 1-h exposure to DDP) of the same molecule?
Answer: Its value is “a similar degree of sensitization was observed”.

Question: What about the “increase in DDP sensitivity” value (2008 cells [3]; TPA and DDP concurrently for 1 h) of the same molecule?
Answer: Its value is 2.5 fold.

Question: What about the “toxicity of TPA by itself” value (2008 cells [3]; concentrations) of the same molecule?
Answer: The value was “did not cause any toxicity by itself”.

Question: And the “DDP sensitization under continuous exposure” value (2008 cells [3]; continuous exposure to both TPA and DDP for the full period of colony formation)?
Answer: The value was “no change in DDP sensitivity was evident”.

Question: And the “decrease in sensitivity to etoposide and vincristine” value (human KB carcinoma cells)?
Answer: Its value is 50%.

Question: And the “effect of TPA on cellular accumulation of [195mPt]DDP” value (2008 cells [4])?
Answer: Its value is “neither the acetone nor the TPA produced any effect on cellular accumulation”.

Question: And the “cAMP level, 10 min. mean” value (cellular cAMP)?
Answer: Its value is 2.7 pmol/mg protein.

Question: And the “cAMP level, % of the untreated control” value (cellular cAMP; 60 min)?
Answer: The value was 38%.

Question: And the “cAMP level, % of the vehicle control” value (cellular cAMP; 60 min)?
Answer: The value was 65%.

Question: What about the “cAMP level, 60 min. mean” value (cellular cAMP) of the same molecule?
Answer: The value was 8.2 pmol/mg protein.

Question: Which results are given for N.N.O=C([O-])C1(C(=O)[O-])CCC1.[Pt+2] [carboplatin]?
Answer: effect of EGF on sensitivity of 2008 cells to the agent (in words) [1, 6]: significant increase in sensitivity; Dose modifying factor (ratio of the IC50 values in control and EGF-treated cells) [1, 8]: 1.8 ± 0.4; IC50 ([1]; read-out: IC50 in absence of EGF, cytotoxic agent for 1 h, no EGF): 120 µM; IC50 [1, 9]: 67 µM

Question: Which “increase in number of human EGF receptors” value (human EGF receptor) does the source give for CC(=O)N(O)CCCCCNC(=O)CCC(=O)N(O)CCCCCNC(=O)CCC(=O)N(O)CCCCCN [desferrioxamine] here?
Answer: The value was “approximately 2 fold”.

Question: And the “modulation of DDP sensitivity in the absence of EGF” value ([5]; 10 μM desferrioxamine, no EGF)?
Answer: Its value is “did not modulate the sensitivity of transfected C127 cells in the absence of EGF”.

Question: And the “toxicity to transfected C127 mouse fibroblasts” value ([5]; 10 μM, prolonged incubation for 2 weeks)?
Answer: The value was “non-toxic”.

Question: And the “increase in sensitivity to the cytotoxicity of DDP vs control cells” value ([5]; desferrioxamine treated cells, in the presence of 10 nM EGF)?
Answer: The value was “approximately 2 fold”.

Question: With COc1cccc2c1C(=O)c1c(O)c3c(c(O)c1C2=O)C[C@@](O)(C(=O)CO)C[C@@H]3O[C@H]1C[C@H](N)[C@H](O)[C@H](C)O1 [doxorubicin] as the molecule, how does the “effect of EGF” value [1, 6] read?
Answer: Its value is “no significant effect”.

Question: What about the IC50 [1, 7] of the same molecule?
Answer: Its IC50 is 1.5 µM.

Question: What about the “Dose modifying factor (ratio of the IC50 values in control and EGF-treated cells)” value [1, 8] of the same molecule?
Answer: Its value is 1.1 ± 0.2.

Question: And the IC50 [1, 9]?
Answer: Its IC50 is 1.4 µM.

Question: What does the source list for N[C@@H](Cc1ccc(N(CCCl)CCCl)cc1)C(=O)O [melphalan]?
Answer: Dose modifying factor (ratio of the IC50 values in control and EGF-treated cells) [1]: 1.4 ± 0.4; effect of EGF on sensitivity of 2008 cells to the agent (in words) [1]: the effect did not reach the level of statistical significance; IC50 [1, 7]: 12 µM; IC50 ([1]; read-out: IC50 in presence of EGF): 9 µM

Question: For CC1=C[C@H]2[C@@]3(O)[C@H](C)[C@@H](O)[C@]4(O)[C@H]([C@@H]3C=C(CO)C[C@]2(O)C1=O)C4(C)C [phorbol], which “effect of phorbol on DDP sensitivity” value (2008 cells [3]; 10^7 M phorbol for 1-h with DDP) is on record?
Answer: Its value is “failed to enhance DDP sensitivity, and, in fact slightly reduced it”.

Question: With CN[C@@H]1C[C@H]2O[C@@](C)([C@@H]1OC)n1c3ccccc3c3c4c(c5c6ccccc6n2c5c31)C(=O)NC4 [staurosporine] as the molecule, how does the “effect of staurosporine by itself on sensitivity to DDP” value (2008 cells [3]; control experiments) read?
Answer: Its value is “did not enhance or inhibit sensitivity to DDP”.

Question: What about the “survival, % of that produced by DDP alone” value (2008 cells [3]; staurosporine pretreatment 1 h, then DDP and TPA (all three agents)) of the same molecule?
Answer: Its value is 96%.

Question: Which “effect of EGF” value [1, 6] does the source give for CC(=O)O[C@H]1C(=O)[C@@]2(C)[C@H]([C@H](OC(=O)c3ccccc3)[C@]3(O)C[C@H](OC(=O)[C@H](O)[C@@H](NC(=O)c4ccccc4)c4ccccc4)C(C)=C1C3(C)C)[C@]1(OC(C)=O)CO[C@@H]1C[C@@H]2O [taxol] here?
Answer: Its value is “significant increase in sensitivity”.

Question: And the IC50 [1, 7]?
Answer: The IC50 was 0.01 µM.

Question: What about the IC50 ([1]; Homo sapiens, Ovarian carcinoma cell, 1 h, read-out: IC50 in presence of EGF) of the same molecule?
Answer: Its IC50 is 0.007 µM.

Question: And the “Dose modifying factor (ratio of the IC50 values in control and EGF-treated cells)” value [1, 8]?
Answer: The value was 1.4 ± 0.1.
